In ChEMBL document CHEMBL6115017, “Discovery of DFV890, a Potent Sulfonimidamide-Containing NLRP3 Inflammasome Inhibitor” (J Med Chem, 2025):
Values after ≈ are worked out from the molar mass of the structure shown. Active and inactive are the calls of the source. The rule behind the calls is not given here.

What was measured:
[1] = molecular target: T1, Cytochrome P450 1A2 (Homo sapiens, UniProt P05177); test: Inhibition of CYP1A2 (unknown origin) by time dependent inhibition assay; type: ADME
T1 sequence (P05177 whole entry): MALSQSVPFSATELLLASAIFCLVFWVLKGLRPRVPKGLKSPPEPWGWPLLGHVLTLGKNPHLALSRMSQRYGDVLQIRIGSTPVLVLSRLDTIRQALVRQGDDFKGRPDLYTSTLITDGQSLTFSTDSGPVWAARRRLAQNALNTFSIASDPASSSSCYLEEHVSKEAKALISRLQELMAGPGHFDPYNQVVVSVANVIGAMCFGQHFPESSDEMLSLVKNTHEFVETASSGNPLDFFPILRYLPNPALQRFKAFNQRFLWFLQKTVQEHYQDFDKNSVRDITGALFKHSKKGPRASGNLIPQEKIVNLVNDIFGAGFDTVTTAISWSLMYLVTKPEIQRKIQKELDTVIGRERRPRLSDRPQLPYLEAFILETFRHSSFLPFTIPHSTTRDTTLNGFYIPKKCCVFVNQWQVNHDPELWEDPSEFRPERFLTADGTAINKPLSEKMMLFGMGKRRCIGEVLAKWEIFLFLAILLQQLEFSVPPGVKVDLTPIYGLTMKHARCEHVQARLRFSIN

[2] = tested on: Mus musculus; test: In vivo inhibition of NLRP3 dependent cytokine production in po dosed LPS-challenged C57BL/6 mouse model assessed as inhibition of LPS-induced IL-6 production in blood pretreated for 1 hr followed by induced with LPS measured after 5 hrs by cytokine bead assay; type: functional, organism-based; details: time 6.0 hrs
[3] = tested on: Macrophage; test: Inhibition of AIM2 inflammasome activation in mouse iMac assessed as inhibition of poly(dA:dT) induced IL-1beta release pretreated for 1 hr followed by induced with poly(dA:dT) measured after 2 hr incubation by HTRF analysis; type: cell-based; details: time 3.0 hrs
[4] = molecular target: Cytochrome P450 3A5 (Homo sapiens, UniProt P20815); test: Inhibition of CYP3A5 (unknown origin); type: ADME
Chain of Cytochrome P450 3A5 (P20815 whole entry): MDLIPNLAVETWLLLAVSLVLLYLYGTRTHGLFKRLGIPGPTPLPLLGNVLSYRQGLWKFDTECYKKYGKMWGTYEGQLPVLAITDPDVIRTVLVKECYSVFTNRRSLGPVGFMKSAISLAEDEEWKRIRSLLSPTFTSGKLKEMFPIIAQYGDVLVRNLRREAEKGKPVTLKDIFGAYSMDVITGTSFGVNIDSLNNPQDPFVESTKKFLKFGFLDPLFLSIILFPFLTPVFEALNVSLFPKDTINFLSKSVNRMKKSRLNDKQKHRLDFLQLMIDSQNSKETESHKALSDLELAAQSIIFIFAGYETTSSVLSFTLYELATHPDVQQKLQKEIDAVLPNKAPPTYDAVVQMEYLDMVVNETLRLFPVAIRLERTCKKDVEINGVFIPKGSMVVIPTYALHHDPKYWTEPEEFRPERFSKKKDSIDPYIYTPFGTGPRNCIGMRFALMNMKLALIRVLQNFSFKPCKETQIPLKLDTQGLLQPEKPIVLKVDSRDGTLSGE

[5] = Volume of distribution at steady state in C57 BL6 mouse at 10 mg/kg, po and 2 mg/kg, iv by LC-MS analysis; type: ADME, organism-based; details: in vivo
[6] = molecular target: Cytochrome P450 2D6 (Homo sapiens, UniProt P10635); test: Inhibition of CYP2D6 (unknown origin); type: ADME
Chain of Cytochrome P450 2D6 (P10635 whole entry): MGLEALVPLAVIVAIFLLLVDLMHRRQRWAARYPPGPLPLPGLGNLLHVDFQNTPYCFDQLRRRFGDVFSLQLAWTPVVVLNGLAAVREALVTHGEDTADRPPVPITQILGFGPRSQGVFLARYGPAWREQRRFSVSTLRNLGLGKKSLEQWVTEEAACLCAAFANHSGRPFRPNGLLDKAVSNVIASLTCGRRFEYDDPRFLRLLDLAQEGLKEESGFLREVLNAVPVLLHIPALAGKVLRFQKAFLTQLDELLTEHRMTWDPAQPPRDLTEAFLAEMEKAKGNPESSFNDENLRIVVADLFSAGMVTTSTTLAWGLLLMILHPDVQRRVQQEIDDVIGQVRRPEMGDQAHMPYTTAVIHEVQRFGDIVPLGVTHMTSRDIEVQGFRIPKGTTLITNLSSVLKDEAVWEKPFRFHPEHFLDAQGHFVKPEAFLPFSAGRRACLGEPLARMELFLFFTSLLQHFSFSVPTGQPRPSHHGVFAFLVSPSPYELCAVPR

[7] = Half life in Beagle dog at 2 mg/kg, po and 1 mg/kg, iv by LC-MS analysis; type: ADME, organism-based, Canis lupus familiaris; details: in vivo
[8] = Thermodynamic solubility in PBS at pH 7.4; type: physicochemical; details: read-out: Therm_solubility
[9] = tested on: Macrophage; test: Inhibition of pyrin inflammasome activation in immortalized NLRP3-KO mouse macrophages assessed as inhibition of TcdB-induced IL-1beta release pretreated for 1 hr followed by induced with TcdB measured after 6 hrs by HTRF analysis; type: cell-based; details: time 7.0 hrs
[10] = Apparent permeability of the compound across apical to basolateral side in MDCK; type: ADME, cell-based, Canis lupus familiaris; details: dog
[11] = Fraction unbound in Beagle dog […] plasma; type: ADME, cell-free, Canis lupus familiaris
[12] = Half life in C57 BL6 mouse at 10 mg/kg, po and 2 mg/kg, iv by LC-MS analysis; type: ADME, organism-based; details: in vivo
[13] = Solubility of the compound in PBS at pH 7.4; type: physicochemical
[14] = Half life in Cynomolgus monkey at 5 mg/kg, po and 2 mg/kg, iv by LC-MS analysis; type: ADME, organism-based, Macaca fascicularis; details: in vivo
[15] = Oral bioavailability in Beagle dog at 2 mg/kg administrated through oral gavage by LC-MS analysis; type: ADME, organism-based, Canis lupus familiaris; details: in vivo
[16] = molecular target: Voltage-gated inwardly rectifying potassium channel KCNH2 (Homo sapiens, UniProt Q12809); test: Inhibition of hERG; type: toxicity
Chain of Voltage-gated inwardly rectifying potassium channel KCNH2 (Q12809 whole entry): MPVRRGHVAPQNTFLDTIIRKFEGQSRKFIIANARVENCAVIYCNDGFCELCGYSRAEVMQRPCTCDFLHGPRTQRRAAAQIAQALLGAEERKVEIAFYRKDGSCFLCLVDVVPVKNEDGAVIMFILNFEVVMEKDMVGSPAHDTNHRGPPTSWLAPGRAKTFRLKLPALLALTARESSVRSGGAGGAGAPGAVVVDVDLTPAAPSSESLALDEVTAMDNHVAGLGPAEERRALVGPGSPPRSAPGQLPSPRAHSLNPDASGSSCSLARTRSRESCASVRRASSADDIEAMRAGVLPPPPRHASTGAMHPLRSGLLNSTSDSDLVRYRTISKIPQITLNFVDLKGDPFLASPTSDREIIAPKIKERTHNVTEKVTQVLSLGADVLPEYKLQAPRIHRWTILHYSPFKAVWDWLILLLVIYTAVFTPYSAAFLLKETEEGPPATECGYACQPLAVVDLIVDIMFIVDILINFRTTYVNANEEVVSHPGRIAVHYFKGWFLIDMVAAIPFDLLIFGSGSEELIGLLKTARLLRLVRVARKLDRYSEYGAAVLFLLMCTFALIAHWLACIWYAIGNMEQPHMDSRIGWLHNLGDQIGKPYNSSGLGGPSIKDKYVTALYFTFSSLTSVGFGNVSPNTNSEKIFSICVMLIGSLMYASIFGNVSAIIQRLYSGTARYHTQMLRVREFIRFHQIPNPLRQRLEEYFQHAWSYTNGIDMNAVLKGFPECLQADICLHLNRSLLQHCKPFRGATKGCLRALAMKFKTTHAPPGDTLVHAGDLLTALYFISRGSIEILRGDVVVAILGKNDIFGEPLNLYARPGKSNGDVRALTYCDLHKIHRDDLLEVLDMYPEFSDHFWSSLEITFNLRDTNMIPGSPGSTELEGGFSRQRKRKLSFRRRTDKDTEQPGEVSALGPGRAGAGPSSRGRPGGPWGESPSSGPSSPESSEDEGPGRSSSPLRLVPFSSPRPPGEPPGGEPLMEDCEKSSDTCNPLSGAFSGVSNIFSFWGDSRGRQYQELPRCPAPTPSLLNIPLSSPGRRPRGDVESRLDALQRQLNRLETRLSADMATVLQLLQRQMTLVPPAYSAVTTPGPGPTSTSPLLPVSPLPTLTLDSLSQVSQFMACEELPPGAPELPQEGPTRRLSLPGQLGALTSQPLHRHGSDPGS

[17] = Thermodynamic solubility in PBS at pH 1; type: physicochemical; details: read-out: Therm_solubility
[18] = tested on: Mus musculus; test: In vivo inhibition of NLRP3 dependent cytokine production in po dosed LPS-challenged C57BL/6 mouse model assessed as inhibition of LPS-induced TNFalpha production in blood pretreated for 1 hr followed by induced with LPS measured after 5 hrs by cytokine bead assay; type: functional, organism-based; details: time 6.0 hrs
[19] = Metabolic stability in human hepatocytes assessed as intrinsic clearance measured per 10^6 cells; type: ADME, cell-based, Hepatocyte; details: read-out: CLH
[20] = AUC (infinity) in Cynomolgus monkey at 5 mg/kg, po by LC-MS analysis; type: ADME, organism-based, Macaca fascicularis; details: in vivo
[21] = Mutagenicity in Salmonella typhimurium by AMES test; type: toxicity; details: salmonella enterica subsp. enterica serovar typhimurium
[22] = molecular target: Cytochrome P450 3A4 (Homo sapiens, UniProt P08684); test: Inhibition of CYP3A4 (unknown origin) by time dependent inhibition assay; type: ADME
Chain of Cytochrome P450 3A4 (P08684 whole entry): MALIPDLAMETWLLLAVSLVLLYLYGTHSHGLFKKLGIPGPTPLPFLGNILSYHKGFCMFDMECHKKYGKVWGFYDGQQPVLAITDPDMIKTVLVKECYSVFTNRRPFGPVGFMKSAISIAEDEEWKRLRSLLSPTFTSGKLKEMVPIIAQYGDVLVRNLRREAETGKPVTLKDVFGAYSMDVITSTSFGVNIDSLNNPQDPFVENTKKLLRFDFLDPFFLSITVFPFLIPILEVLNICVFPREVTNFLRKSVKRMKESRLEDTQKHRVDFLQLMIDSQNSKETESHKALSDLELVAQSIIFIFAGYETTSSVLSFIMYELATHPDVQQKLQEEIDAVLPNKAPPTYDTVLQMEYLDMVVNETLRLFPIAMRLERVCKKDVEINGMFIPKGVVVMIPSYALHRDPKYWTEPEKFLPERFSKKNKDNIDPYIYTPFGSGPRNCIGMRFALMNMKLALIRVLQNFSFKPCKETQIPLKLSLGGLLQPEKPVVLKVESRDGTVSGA

[23] = AUC (infinity) in Beagle dog at 2 mg/kg, po by LC-MS analysis; type: ADME, organism-based, Canis lupus familiaris; details: in vivo
[24] = molecular target: T2, PXR (Homo sapiens, UniProt O75469); test: Activation of PXR (unknown origin) assessed as activation at 30 uM relative to control; type: toxicity; details: read-out: Activity
T2 sequence (O75469 whole entry): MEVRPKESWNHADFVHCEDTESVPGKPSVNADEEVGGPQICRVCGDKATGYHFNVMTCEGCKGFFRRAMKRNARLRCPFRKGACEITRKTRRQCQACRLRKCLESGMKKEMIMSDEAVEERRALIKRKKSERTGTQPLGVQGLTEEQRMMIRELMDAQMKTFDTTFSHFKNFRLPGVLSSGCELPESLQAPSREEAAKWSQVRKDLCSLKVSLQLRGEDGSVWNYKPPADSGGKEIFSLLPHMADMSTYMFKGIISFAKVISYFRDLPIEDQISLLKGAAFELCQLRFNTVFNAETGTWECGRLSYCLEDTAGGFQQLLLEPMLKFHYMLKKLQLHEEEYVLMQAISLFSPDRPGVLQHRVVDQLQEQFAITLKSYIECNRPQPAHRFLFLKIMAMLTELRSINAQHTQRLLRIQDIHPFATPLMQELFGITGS

[25] = molecular target: Cytochrome P450 2C19 (Homo sapiens, UniProt P33261); test: Inhibition of CYP2C19 (unknown origin); type: ADME
Chain of Cytochrome P450 2C19 (P33261 whole entry): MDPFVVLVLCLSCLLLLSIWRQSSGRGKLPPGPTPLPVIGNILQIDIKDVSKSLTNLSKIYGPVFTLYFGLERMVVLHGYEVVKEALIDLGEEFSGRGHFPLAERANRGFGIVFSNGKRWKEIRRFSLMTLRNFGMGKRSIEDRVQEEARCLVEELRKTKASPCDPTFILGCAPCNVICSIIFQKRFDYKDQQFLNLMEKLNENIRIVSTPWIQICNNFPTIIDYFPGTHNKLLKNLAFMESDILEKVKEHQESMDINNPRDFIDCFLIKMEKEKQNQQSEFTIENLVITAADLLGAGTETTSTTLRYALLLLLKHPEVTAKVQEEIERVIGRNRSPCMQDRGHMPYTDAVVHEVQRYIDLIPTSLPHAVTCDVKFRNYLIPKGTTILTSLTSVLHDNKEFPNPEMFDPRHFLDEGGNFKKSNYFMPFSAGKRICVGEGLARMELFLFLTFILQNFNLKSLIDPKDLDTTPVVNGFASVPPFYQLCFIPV

[26] = molecular target: T3, Cytochrome P450 2C8 (Homo sapiens, UniProt P10632); test: Inhibition of CYP2C8 (unknown origin); type: ADME
T3 sequence (P10632 whole entry): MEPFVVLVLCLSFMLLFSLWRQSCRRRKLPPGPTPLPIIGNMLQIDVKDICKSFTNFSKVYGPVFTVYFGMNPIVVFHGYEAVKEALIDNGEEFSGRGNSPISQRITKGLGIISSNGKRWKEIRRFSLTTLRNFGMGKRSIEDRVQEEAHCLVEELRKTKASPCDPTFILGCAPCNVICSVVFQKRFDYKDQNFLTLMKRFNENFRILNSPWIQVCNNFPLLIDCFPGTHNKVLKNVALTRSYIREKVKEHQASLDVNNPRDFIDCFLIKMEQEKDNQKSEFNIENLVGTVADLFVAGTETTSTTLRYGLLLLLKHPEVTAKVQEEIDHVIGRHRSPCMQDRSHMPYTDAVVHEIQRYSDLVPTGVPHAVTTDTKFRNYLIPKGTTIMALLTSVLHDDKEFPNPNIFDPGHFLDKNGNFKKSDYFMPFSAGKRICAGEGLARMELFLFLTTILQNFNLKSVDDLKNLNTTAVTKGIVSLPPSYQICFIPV

[27] = Thermodynamic solubility in PBS at pH 5; type: physicochemical; details: read-out: Therm_solubility

Compound: CC(C)(O)c1ncc([S@](N)(=O)=NC(=O)Nc2c3c(cc4c2CCC4)CCC3)s1
- TDI [1]: Not_active
- inhibition [2]: Dose-dependent-effect
- Activity [3]: inactive
- IC50 [4]: > 60 µM
- Vdss [5]: 0.12 L/kg
- IC50 [6]: > 60 µM
- half-life [7]: 564 min
- solubility thermodynamic [8]: 21 µg/mL (≈ 49.9 µM)
- Activity [9]: inactive
- Papp A→B [10]: 8.2 ×10⁻⁶ cm/s
- fraction unbound [11]: 0.009
- half-life [12]: 234 min
- solubility [13]: 21 µg/mL (≈ 49.9 µM)
- half-life [14]: 312 min
- bioavailability [15]: 97%
- IC50 [16]: > 30 µM
- solubility thermodynamic [17]: 7.4 µg/mL (≈ 17.6 µM)
- inhibition [18]: Dose-dependent-effect
- hepatocyte CLint [19]: 8.4 µL/min/1e6 cells
- AUC(0-inf) [20]: 331 µg·h/mL
- Activity [21]: Non-toxic
- TDI [22]: Not_active
- AUC(0-inf) [23]: 163 µg·h/mL
- activity at 30 µM [24]: 19%
- IC50 [25]: > 60 µM
- IC50 [26]: > 60 µM
- solubility thermodynamic [27]: 9.1 µg/mL (≈ 21.6 µM)
